Test results from patent publication US9487508B2, “SGC stimulators” (IRONWOOD PHARMACEUTICALS, INC., priority 2012, dated 2016).

Biological target: T1, Human soluble guanylate cyclase enzyme (hsGC) (Homo sapiens, UniProt Q02108+Q02153)
T1 construct: purchased Enzo Inc. ALX-201-177
T1 sequence (Q02153 1-619): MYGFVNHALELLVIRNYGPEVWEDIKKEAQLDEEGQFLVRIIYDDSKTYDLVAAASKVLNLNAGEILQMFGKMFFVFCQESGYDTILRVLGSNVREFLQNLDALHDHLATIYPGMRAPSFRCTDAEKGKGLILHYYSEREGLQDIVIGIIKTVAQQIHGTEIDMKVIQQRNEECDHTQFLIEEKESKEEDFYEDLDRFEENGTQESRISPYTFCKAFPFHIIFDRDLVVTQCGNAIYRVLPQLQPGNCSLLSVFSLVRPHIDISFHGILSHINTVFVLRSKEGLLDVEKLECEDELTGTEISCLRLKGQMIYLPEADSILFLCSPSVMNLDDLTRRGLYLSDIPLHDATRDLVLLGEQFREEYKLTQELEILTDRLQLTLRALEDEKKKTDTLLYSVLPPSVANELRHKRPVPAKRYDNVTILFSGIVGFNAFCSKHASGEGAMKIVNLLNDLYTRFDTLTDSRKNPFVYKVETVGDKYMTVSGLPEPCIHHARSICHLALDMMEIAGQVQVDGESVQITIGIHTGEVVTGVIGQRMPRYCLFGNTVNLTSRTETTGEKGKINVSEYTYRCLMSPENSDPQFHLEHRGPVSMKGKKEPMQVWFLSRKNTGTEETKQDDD
T1 sequence (Q02108 1-690): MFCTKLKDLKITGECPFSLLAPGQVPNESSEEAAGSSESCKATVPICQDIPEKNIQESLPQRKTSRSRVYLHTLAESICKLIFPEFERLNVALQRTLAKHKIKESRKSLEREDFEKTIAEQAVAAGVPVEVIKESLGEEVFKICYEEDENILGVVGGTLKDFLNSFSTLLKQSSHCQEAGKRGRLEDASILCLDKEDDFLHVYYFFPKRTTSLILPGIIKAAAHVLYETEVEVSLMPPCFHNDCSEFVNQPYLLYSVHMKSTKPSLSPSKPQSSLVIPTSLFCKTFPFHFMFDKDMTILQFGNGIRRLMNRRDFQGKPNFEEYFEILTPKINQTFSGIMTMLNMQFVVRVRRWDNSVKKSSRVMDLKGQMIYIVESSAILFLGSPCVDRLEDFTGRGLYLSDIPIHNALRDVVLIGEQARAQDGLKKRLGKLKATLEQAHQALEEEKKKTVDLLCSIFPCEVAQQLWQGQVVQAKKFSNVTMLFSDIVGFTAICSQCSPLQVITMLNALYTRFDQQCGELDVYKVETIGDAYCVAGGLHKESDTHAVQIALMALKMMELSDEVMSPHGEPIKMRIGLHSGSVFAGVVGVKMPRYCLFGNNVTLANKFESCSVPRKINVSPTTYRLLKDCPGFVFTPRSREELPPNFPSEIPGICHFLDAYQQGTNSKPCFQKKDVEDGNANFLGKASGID
Test: Purified human sGC enzyme synergy assay in the presence of sodium nitroprusside (SNP)
Type: biochemical
Settings: 30 μM compound, 1 μM SNP; fold change of specific activity vs DMSO control
Protocol: Human soluble guanylate cyclase enzyme (hsGC) obtained from Enzo Inc. (P/N: ALX-201-177) was used to evaluate the activity of test compounds. The assay reactions contained 0.1 M Tris (pH 8.0), 0.5 mg/mL BSA (pH 8.0), 2 mM DTT, 2 mM MgCl2, 300 μM GTP, 1 mM 3-isobutyl-1-methylxanthine (IBMX) and 5 ng human soluble guanylate cyclase enzyme. Test compounds in DMSO were then added (2 μL, 10 or 30 μM final concentration) and incubated (water, 200 μL, 96-well plate format) at 37° C. for 30 minutes. The controls were carried out using 2 μL DMSO. After the 30 minute incubation, the reaction was stopped with the addition of 200 μL of cold methanol. The plate was then centrifuged at 3,200 rpm for 10 minutes at room temperature. Supernatants (200 μL) were collected and transferred to a new 96 well plate for analysis by HPLC LC/MS/MS.
An 8 point cGMP (Sigma-Aldrich P/N: G6129) standard curve was prepared in assay buffer ranging from 0.156-20 μM. Samples for the cGMP standard curve were then diluted with an equal volume of methanol resulting in final cGMP concentrations of 0.078-10 μM.
The cGMP standard curve was generated using GraphPad Prism Software.
Calculations: Specific Activity was determined by the amount of cGMP formed (nmoles) per mg of sGC per min. Enzyme “fold-change” was calculated by dividing Specific Activity for test compounds by Specific Activity of DMSO controls. […]

Nc1ccnc(-n2cc(-c3ncco3)c(Cc3ccccc3F)n2)n1 [Compound I-2]
Enzyme Activity (increase at 30 μM with SNP): D (D = 10 or <20 fold increase)
